# Measurements reported in US9334244B2, “Compounds useful as inhibitors of ATR kinase” (Vertex Pharmaceuticals Incorporated, priority 2010, dated 2016).
# Target: T1, full-length ATR (Homo sapiens, UniProt Q13535)
# T1 construct: Assays were carried out at 25° C. in the presence of 5 nM full-length ATR
# Test: ATR Inhibition Assay (radioactive-phosphate incorporation)
# Assay type: biochemical
# Details: 5 nM full-length ATR, 10 μM [γ-33P]ATP, 800 μM target peptide, 25° C.; read-out: Ki value (Ki(app)) for inhibition of ATR
# Protocol: Compounds were screened for their ability to inhibit ATR kinase using a radioactive-phosphate incorporation assay. Assays were carried out in a mixture of 50 mM Tris/HCl (pH 7.5), 10 mM MgCl2 and 1 mM DTT. Final substrate concentrations were 10 μM [γ-^33P]ATP (3mCi 33P ATP/mmol ATP, Perkin Elmer) and 800 μM target peptide ([…]).
# Assays were carried out at 25° C. in the presence of 5 nM full-length ATR. An assay stock buffer solution was prepared containing all of the reagents listed above, with the exception of ATP and the test compound of interest. 13.5 μL of the stock solution was placed in a 96 well plate followed by addition of 2 μL of DMSO stock containing serial dilutions of the test compound (typically starting from a final concentration of 15 μM with 3-fold serial dilutions) in duplicate (final DMSO concentration 7%). The plate was pre-incubated for 10 minutes at 25° C. and the reaction initiated by addition of 15 μl [γ-^33P]ATP (final concentration 10 μM).
# The reaction was stopped after […] by the addition of 30 μL 0.1M phosphoric acid containing 2 mM ATP. A multiscreen phosphocellulose filter 96-well plate (Millipore, Cat no. MAPHN0B50) was pretreated with 100 μL 0.2M phosphoric acid prior to the addition of 45 μL of the stopped assay mixture. The plate was washed with 5×200 μL 0.2M phosphoric acid. After drying, 100 μL Optiphase ‘SuperMix’ liquid scintillation cocktail (Perkin Elmer) was added to the well prior to scintillation counting (1450 Microbeta Liquid Scintillation Counter, Wallac).
# After removing mean background values for all of the data points, Ki(app) data were calculated from non-linear regression analysis of the initial rate data using the Prism software package (GraphPad Prism version 3.0cx for Macintosh, GraphPad Software, San Diego Calif., USA).
# T1 sequence (Q13535 whole entry): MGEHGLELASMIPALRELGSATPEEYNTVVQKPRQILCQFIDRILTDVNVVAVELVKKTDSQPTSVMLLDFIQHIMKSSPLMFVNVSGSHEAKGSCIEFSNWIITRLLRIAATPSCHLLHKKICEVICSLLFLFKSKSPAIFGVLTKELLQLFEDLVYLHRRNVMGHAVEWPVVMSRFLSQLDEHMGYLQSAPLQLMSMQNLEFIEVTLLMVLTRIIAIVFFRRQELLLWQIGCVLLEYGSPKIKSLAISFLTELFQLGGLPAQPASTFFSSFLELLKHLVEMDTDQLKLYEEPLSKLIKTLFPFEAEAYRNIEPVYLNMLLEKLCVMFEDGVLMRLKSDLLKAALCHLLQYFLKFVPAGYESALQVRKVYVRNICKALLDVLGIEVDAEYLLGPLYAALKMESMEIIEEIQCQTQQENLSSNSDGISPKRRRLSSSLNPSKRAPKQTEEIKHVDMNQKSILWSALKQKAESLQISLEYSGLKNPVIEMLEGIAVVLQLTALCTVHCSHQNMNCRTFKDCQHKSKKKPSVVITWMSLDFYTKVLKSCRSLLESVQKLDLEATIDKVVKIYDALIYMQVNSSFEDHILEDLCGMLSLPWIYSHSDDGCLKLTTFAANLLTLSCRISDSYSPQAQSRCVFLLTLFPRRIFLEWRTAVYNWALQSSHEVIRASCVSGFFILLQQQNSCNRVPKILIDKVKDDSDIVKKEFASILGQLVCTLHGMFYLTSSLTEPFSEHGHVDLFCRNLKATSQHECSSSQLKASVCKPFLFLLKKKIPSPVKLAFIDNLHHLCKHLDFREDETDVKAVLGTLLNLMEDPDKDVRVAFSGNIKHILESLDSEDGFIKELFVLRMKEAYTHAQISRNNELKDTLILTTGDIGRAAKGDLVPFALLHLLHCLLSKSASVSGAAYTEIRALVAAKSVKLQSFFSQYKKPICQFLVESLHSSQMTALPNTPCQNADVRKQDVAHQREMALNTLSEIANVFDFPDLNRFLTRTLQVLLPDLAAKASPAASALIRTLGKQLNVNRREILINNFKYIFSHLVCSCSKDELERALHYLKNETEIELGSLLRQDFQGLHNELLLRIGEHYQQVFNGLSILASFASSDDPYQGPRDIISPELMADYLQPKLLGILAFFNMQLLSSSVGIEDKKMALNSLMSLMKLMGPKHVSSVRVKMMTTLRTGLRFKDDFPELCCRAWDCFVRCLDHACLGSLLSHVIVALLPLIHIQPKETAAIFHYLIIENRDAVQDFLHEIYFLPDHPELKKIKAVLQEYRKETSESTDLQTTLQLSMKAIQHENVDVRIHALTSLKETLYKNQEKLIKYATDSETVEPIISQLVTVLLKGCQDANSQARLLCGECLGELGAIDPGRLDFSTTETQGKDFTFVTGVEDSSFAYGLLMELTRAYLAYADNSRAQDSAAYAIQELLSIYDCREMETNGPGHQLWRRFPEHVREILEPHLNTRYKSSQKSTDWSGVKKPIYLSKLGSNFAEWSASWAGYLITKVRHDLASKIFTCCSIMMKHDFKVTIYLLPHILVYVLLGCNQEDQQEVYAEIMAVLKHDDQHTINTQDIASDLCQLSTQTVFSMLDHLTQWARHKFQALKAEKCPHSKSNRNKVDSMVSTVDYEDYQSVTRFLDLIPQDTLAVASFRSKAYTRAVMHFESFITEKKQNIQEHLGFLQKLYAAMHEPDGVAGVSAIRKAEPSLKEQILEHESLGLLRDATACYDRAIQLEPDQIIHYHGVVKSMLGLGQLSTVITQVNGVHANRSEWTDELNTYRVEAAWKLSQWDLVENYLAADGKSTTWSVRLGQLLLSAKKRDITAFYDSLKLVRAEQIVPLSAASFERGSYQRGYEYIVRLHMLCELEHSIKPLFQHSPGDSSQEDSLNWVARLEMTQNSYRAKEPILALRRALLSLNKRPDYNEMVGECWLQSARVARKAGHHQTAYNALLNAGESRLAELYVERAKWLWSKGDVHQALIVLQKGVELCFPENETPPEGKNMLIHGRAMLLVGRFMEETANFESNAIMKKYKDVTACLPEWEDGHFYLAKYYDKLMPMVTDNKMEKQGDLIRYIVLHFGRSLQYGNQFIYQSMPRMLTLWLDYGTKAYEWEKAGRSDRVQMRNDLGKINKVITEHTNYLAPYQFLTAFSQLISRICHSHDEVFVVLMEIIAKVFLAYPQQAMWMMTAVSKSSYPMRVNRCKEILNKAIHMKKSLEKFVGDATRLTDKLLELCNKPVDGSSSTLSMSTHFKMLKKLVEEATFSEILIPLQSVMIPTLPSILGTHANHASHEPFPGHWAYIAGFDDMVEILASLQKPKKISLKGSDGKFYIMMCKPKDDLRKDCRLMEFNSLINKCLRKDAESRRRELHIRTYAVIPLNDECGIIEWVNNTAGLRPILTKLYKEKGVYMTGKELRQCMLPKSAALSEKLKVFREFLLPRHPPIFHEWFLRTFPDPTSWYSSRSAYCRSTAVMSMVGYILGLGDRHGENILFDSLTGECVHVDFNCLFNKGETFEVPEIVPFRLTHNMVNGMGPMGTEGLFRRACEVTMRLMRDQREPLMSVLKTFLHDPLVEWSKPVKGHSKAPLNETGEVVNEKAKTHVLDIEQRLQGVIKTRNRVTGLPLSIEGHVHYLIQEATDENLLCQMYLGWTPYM
row,Ki [nM],Compound
1,250 to 500,"Cc1ncc(-c2ccc(S(C)(=O)=O)cc2)nc1C(=O)Nc1ccccc1 [Compound IV-1, 3-Methyl-6-(4-(methylsulfonyl)phenyl)-N-phenylpyrazine-2-carboxamide]"
2,100 to 250,"CC(C)S(=O)(=O)c1ccc(-c2cncc(-c3cc(-c4ccccc4)no3)n2)cc1 [Compound IV-2, 5-(6-(4-(isopropylsulfonyl)phenyl)pyrazin-2-yl)-3-phenylisoxazole]"
3,< 100,"CNCc1ccc(-c2cc(-c3cncc(-c4ccc(S(=O)(=O)C(C)C)cc4)n3)on2)cc1 [Compound IV-3, 1-(4-(5-(6-(4-(isopropylsulfonyl)phenyl)pyrazin-2-yl)isoxazol-3-yl)phenyl)-N-methylmethanamine]"
